Converted amounts (≈) assume the structure as drawn.
Assays:
E. coli K12 PBP3 = target: T1, E. coli K12 PBP3 (Escherichia coli, UniProt P0AD68); test: biochemical; type: binding
T1 construct: made in house
In short: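 Fluorescence polarization (ex 490/em 520 nm) competition of inhibitors against Bocillin-FL at 0.1 μM, read up to 60 min. Final PBP levels: E. coli PBP3 1.5 μM; A. baumannii PBP2 2.5 μM, PBP3 0.2 μM in Tris pH 8.0/NaCl/glycerol/Tween 20; N. gonorrhoeae PBP2 […] in Hepes pH 8.0/NaCl/glycerol. EC50 = concentration halving PBP-bound Bocillin-FL.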

P. aeruginosa PBP3 = target: T2, P. aeruginosa PBP3 (Pseudomonas aeruginosa, UniProt G3XD46); test: Bocillin-FL fluorescence polarization competition binding assay, P. aeruginosa PBP3; details: fluorescence polarization competition binding assay using Bocillin-FL
T2 construct: made in house
In short: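 Binding of boronic acid inhibitors to purified Pseudomonas aeruginosa (PA01) PBP3 was measured by fluorescence polarization competition with Bocillin-FL, a fluorescent penicillin V. Reactions of 80 μl contained 0.75 μM PBP3 and 0.1 μM Bocillin-FL in 50 mM Hepes (pH 8.0), 300 mM NaCl and 5% (v/v) glycerol, in black 384-well plates. FP (Excitation 490 nm, Emission 520 nm) was read for up to 60 minutes. EC50 is the concentration that halves PBP-bound Bocillin-FL.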

[1] = tested on: N. gonorrhoeae ATCC 49226; test: Liquid broth MIC in Fastidious broth; type: cell-based; details: Neisseria gonorrhoeae, ATCC49226; N. gonorrhoeae strain ATCC 49226; Fastidious broth; read-out: Minimum Inhibitory Concentration, N. gonorrhoeae ATCC 49226
In short: (§1)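 Colonies were swabbed from chocolate agar after 24 h growth and standardised by optical density at 600 nm. Compounds were serially diluted twofold in Fastidious broth, and bacteria added to give 5×10^5 CFU/mL. After about 24 h at 36 °C in 5% CO2, the lowest concentration allowing under 10% growth was taken as MIC.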

N. gonorrhoeae FA1090 = test: Liquid broth MIC in Fastidious broth; type: cell-based; details: Neisseria gonorrhoeae; N. gonorrhoeae strain FA1090; Fastidious broth; read-out: Minimum Inhibitory Concentration, N. gonorrhoeae FA1090
In short: as §1

N. gonorrhoeae WHO G = test: Liquid broth MIC in Fastidious broth; type: cell-based; details: Neisseria gonorrhoeae; N. gonorrhoeae strain WHO G; Fastidious broth; read-out: Minimum Inhibitory Concentration, N. gonorrhoeae WHO G
In short: as §1

N. gonorrhoeae WHO K = test: Liquid broth MIC in Fastidious broth; type: cell-based; details: Neisseria gonorrhoeae, read-out: Minimum Inhibitory Concentration, N. gonorrhoeae WHO K
In short: (§2)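 MIC = lowest concentration giving <10% growth relative to untreated wells, scored by eye after ~24 h at 36 °C, 5% CO2. Strains carry mosaic PBP2; inoculum 5×10^5 CFU/mL in Fastidious broth with 2-fold serial compound dilutions.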

N. gonorrhoeae WHO L = test: Liquid broth MIC in Fastidious broth; type: cell-based; details: Neisseria gonorrhoeae; N. gonorrhoeae strain WHO L; Fastidious broth; read-out: Minimum Inhibitory Concentration, N. gonorrhoeae WHO L
In short: as §1

N. gonorrhoeae WHO Q = test: Liquid broth MIC in Fastidious broth; type: cell-based; details: Neisseria gonorrhoeae, read-out: Minimum Inhibitory Concentration, N. gonorrhoeae WHO Q
In short: as §2

N. gonorrhoeae WHO Z = test: Liquid broth MIC in Fastidious broth; type: cell-based; details: Neisseria gonorrhoeae, read-out: Minimum Inhibitory Concentration, N. gonorrhoeae WHO Z
In short: as §2

T1 sequence (P0AD68 1-577): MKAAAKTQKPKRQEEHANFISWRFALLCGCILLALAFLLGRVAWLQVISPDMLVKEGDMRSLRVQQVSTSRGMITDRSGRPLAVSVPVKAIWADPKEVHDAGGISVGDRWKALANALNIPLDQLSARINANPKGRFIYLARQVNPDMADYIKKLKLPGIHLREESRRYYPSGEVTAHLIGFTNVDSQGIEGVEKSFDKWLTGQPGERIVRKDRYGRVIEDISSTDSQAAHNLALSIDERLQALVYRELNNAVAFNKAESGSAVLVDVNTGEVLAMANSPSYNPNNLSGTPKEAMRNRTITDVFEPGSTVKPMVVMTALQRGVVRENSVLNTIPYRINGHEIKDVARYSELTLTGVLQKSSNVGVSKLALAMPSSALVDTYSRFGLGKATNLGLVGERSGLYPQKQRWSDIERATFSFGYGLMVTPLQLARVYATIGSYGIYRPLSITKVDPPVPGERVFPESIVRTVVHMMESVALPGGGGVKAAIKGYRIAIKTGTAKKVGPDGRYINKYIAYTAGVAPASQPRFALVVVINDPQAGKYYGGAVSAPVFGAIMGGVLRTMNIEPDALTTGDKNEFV
T2 sequence (G3XD46 whole entry): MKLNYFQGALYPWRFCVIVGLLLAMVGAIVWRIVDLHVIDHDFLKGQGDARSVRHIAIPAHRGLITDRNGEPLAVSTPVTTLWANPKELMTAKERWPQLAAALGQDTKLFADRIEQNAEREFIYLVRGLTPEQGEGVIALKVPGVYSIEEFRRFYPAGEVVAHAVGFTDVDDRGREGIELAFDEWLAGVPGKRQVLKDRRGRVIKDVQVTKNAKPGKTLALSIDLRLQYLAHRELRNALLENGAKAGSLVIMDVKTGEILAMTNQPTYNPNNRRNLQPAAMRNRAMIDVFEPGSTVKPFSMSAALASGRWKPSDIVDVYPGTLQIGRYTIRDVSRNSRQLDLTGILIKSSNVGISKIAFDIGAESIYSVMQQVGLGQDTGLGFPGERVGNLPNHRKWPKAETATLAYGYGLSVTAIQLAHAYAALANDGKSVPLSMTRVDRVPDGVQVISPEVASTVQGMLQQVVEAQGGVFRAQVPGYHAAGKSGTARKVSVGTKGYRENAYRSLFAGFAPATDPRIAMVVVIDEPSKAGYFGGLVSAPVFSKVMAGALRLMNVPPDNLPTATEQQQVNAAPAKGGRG

Row | Compound | EC50 (E. coli K12 PBP3) [µM] | P. aeruginosa PBP3 Potency (P. aeruginosa PBP3) | MIC [1] [µg/mL] | MIC (N. gonorrhoeae FA1090) [µg/mL] | MIC (N. gonorrhoeae WHO G) [µg/mL] | MIC (N. gonorrhoeae WHO K) [µg/mL] | MIC (N. gonorrhoeae WHO L) [µg/mL] | MIC (N. gonorrhoeae WHO Q) [µg/mL] | MIC (N. gonorrhoeae WHO Z) [µg/mL]
1 | CCN1CCN(C(=O)NC(C(=O)N[C@H]2Cc3cccc(C(=O)O)c3OB2O)c2cc(F)c(O)c(F)c2)C(=O)C1=O (stereo partly drawn) [Example 160, (3R)-3-(2-(3,5-difluoro-4-hydroxyphenyl)-2-(4-ethyl-2,3-dioxopiperazine-1-carboxamido)acetamido)-2-hydroxy-3,4-dihydro-2H-benzo[e][1,2]oxaborinine-8-carboxylic acid] | < 30 | D (D represents a potency <10 μM) | 4 to 8 (≈ 7.14 to 14.3 µM) | < 0.125 | 1 to 2 (≈ 1.78 to 3.57 µM) | 16 to 32 (≈ 28.6 to 57.1 µM) | 16 to 32 (≈ 28.6 to 57.1 µM) | 4 to 8 (≈ 7.14 to 14.3 µM) | 4 to 8 (≈ 7.14 to 14.3 µM)
2 | NCCN1CCN(C(=O)NC(C(=O)N[C@H]2Cc3cccc(C(=O)O)c3OB2O)c2ccc(C(=O)O)cc2O)C(=O)C1=O (stereo partly drawn) [Example 142, (3R)-3-(2-(4-(2-aminoethyl)-2,3-dioxopiperazine-1-carboxamido)-2-(4-carboxy-2-hydroxyphenyl)acetamido)-2-hydroxy-3,4-dihydro-2H-benzo[e][1,2]oxaborinine-8-carboxylic acid] | 30 to 500 | C (C represents a potency between 10 and 30 μM) | 16 to 32 (≈ 27.4 to 54.9 µM) | 4 to 8 (≈ 6.86 to 13.7 µM) | 4 to 8 (≈ 6.86 to 13.7 µM) | > 64 | > 64 | > 64 | > 64
3 | CCN1CCN(C(=O)NC(C(=O)N[C@H]2Cc3cccc(C(=O)O)c3OB2O)c2cc(F)c(O)c(F)c2F)C(=O)C1=O (stereo partly drawn) [Example 172, (3R)-3-(2-(4-ethyl-2,3-dioxopiperazine-1-carboxamido)-2-(2,3,5-trifluoro-4-hydroxyphenyl)acetamido)-2-hydroxy-3,4-dihydro-2H-benzo[e][1,2]oxaborinine-8-carboxylic acid] | < 30 | D (D represents a potency <10 μM) | 1 to 2 (≈ 1.73 to 3.46 µM) | < 0.125 | 0.25 to 0.5 (≈ 0.432 to 0.865 µM) | 4 to 8 (≈ 6.92 to 13.8 µM) | 4 to 8 (≈ 6.92 to 13.8 µM) | 4 to 8 (≈ 6.92 to 13.8 µM) | 1 to 2 (≈ 1.73 to 3.46 µM)
4 | NC1(CN2CCN(C(=O)N[C@@H](C(=O)N[C@H]3Cc4ccc(F)c(C(=O)O)c4OB3O)c3c(F)cc(O)c(O)c3Cl)C(=O)C2=O)CC1 (single isomer, unassigned) [Example 134] | 30 to 500 | D (D represents a potency <10 μM) | > 64 | 16 to 32 (≈ 24.5 to 49.1 µM) | > 64 | > 64 | > 64 | > 64 | > 64
5 | NCCN1CCN(C(=O)N[C@@H](C(=O)N[C@H]2Cc3cccc(C(=O)O)c3OB2O)c2c(F)cc(O)cc2F)C(=O)C1=O (single isomer, unassigned) [Example 111] | < 30 | D (D represents a potency <10 μM) | 16 to 32 (≈ 27.8 to 55.6 µM) | 1 to 2 (≈ 1.74 to 3.48 µM) | 4 to 8 (≈ 6.95 to 13.9 µM) | > 64 | > 64 | > 64 | > 64
6 | NCCN1CCN(C(=O)N[C@H](C(=O)N[C@H]2Cc3cccc(C(=O)O)c3OB2O)c2cc(Cl)c(O)c(Cl)c2)C(=O)C1=O (single isomer, unassigned) [Example 165] | 30 to 500 | D (D represents a potency <10 μM) | > 64 | 4 to 8 (≈ 6.58 to 13.2 µM) | > 64 | > 64 | > 64 | > 64 | > 64
7 | NCCN1CCN(C(=O)N[C@@H](C(=O)N[C@H]2Cc3ccc(F)c(C(=O)O)c3OB2O)c2c(F)cc(O)cc2F)C(=O)C1=O (single isomer, unassigned) [Example 127] | < 30 | D (D represents a potency <10 μM) | 16 to 32 (≈ 27 to 53.9 µM) | 4 to 8 (≈ 6.74 to 13.5 µM) | 16 to 32 (≈ 27 to 53.9 µM) | > 64 | > 64 | > 64 | > 64
8 | NCCN1CCN(C(=O)NC(C(=O)N[C@H]2Cc3cccc(C(=O)O)c3OB2O)c2ccc(C(=O)O)c(Cl)c2)C(=O)C1=O (stereo partly drawn) [Example 153, (3R)-3-(2-(4-(2-aminoethyl)-2,3-dioxopiperazine-1-carboxamido)-2-(4-carboxy-3-chlorophenyl)acetamido)-2-hydroxy-3,4-dihydro-2H-benzo[e][1,2]oxaborinine-8-carboxylic acid] | < 30 | D (D represents a potency <10 μM) | 16 to 32 (≈ 26.6 to 53.2 µM) | 1 to 2 (≈ 1.66 to 3.32 µM) | 4 to 8 (≈ 6.65 to 13.3 µM) | 16 to 32 (≈ 26.6 to 53.2 µM) | > 64 | 16 to 32 (≈ 26.6 to 53.2 µM) | 16 to 32 (≈ 26.6 to 53.2 µM)
9 | NCCN1CCN(C(=O)NC(C(=O)N[C@H]2Cc3cccc(C(=O)O)c3OB2O)c2cc(F)c(O)c(Cl)c2)C(=O)C1=O (stereo partly drawn) [Example 163, (3R)-3-(2-(4-(2-aminoethyl)-2,3-dioxopiperazine-1-carboxamido)-2-(3-chloro-5-fluoro-4-hydroxyphenyl)acetamido)-2-hydroxy-3,4-dihydro-2H-benzo[e][1,2]oxaborinine-8-carboxylic acid] | < 30 | D (D represents a potency <10 μM) | > 64 | 1 to 2 (≈ 1.69 to 3.38 µM) | 16 to 32 (≈ 27 to 54.1 µM) | > 64 | > 64 | > 64 | > 64
10 | CCN1CCN(C(=O)NC(C(=O)N[C@H]2Cc3cccc(C(=O)O)c3OB2O)c2cccc(CNS(N)(=O)=O)c2)C(=O)C1=O (stereo partly drawn) [Example 107, (3R)-3-(2-(4-ethyl-2,3-dioxopiperazine-1-carboxamido)-2-(3-((sulfamoylamino)methyl)phenyl)acetamido)-2-hydroxy-3,4-dihydro-2H-benzo[e][1,2]oxaborinine-8-carboxylic acid] | 30 to 500 | D (D represents a potency <10 μM) | > 64 | 1 to 2 (≈ 1.62 to 3.24 µM) | 16 to 32 (≈ 26 to 51.9 µM) | > 64 | > 64 | > 64 | > 64
11 | O=C(O)c1c(F)ccc2c1OB(O)[C@@H](NC(=O)C(NC(=O)N1CCN(CCF)C(=O)C1=O)c1c(F)cc(O)cc1F)C2 (stereo partly drawn) [Example 129, (3R)-3-(2-(2,6-difluoro-4-hydroxyphenyl)-2-(4-(2-fluoroethyl)-2,3-dioxopiperazine-1-carboxamido)acetamido)-7-fluoro-2-hydroxy-3,4-dihydro-2H-benzo[e][1,2]oxaborinine-8-carboxylic acid] | < 30 | D (D represents a potency <10 μM) | 16 to 32 (≈ 26.8 to 53.7 µM) | 1 to 2 (≈ 1.68 to 3.35 µM) | 4 to 8 (≈ 6.71 to 13.4 µM) | 16 to 32 (≈ 26.8 to 53.7 µM) | > 64 | 16 to 32 (≈ 26.8 to 53.7 µM) | 4 to 8 (≈ 6.71 to 13.4 µM)
12 | CCN1CCN(C(=O)NC(C(=O)N[C@H]2Cc3cccc(C(=O)O)c3OB2O)c2cc(F)c(O)c(Cl)c2)C(=O)C1=O (stereo partly drawn) [Example 164, (3R)-3-(2-(3-chloro-5-fluoro-4-hydroxyphenyl)-2-(4-ethyl-2,3-dioxopiperazine-1-carboxamido)acetamido)-2-hydroxy-3,4-dihydro-2H-benzo[e][1,2]oxaborinine-8-carboxylic acid] | < 30 | D (D represents a potency <10 μM) | 4 to 8 (≈ 6.94 to 13.9 µM) | 0.25 to 0.5 (≈ 0.433 to 0.867 µM) | 1 to 2 (≈ 1.73 to 3.47 µM) | 16 to 32 (≈ 27.7 to 55.5 µM) | 16 to 32 (≈ 27.7 to 55.5 µM) | 16 to 32 (≈ 27.7 to 55.5 µM) | 4 to 8 (≈ 6.94 to 13.9 µM)
13 | NC1(CN2CCN(C(=O)N[C@@H](C(=O)N[C@H]3Cc4ccc(F)c(C(=O)O)c4OB3O)c3cc(F)c(O)c(O)c3Cl)C(=O)C2=O)CC1 (single isomer, unassigned) [Example 133] | 30 to 500 | D (D represents a potency <10 μM) | > 64 | 16 to 32 (≈ 24.5 to 49.1 µM) | 16 to 32 (≈ 24.5 to 49.1 µM) | > 64 | > 64 | > 64 | > 64
